Consider three molecules from patent US20240279604A1, “3D spheroid having uniform size and composition comprising neuron and astrocyte derived from Alzheimer's disease patients, method for producing thereof, and method and kit for screening drug using thereof” (Industry-University Cooperation Foundation Hanyang …, priority 2023, published 2024).

Entries after “also recorded” stand apart in the source; their conditions may differ.

One data set has as its target T1, Aβ (1-42) (Homo sapiens, UniProt P05067).
T1 construct: an Aβ (1-42) peptide (AGP-8338, Anygen, Gwangju, Republic of Korea); purchased Anygen AGP-8338
Kind of data set: in vitro ThT fluorescence assay for Aβ (1-42) aggregation. It counts as biochemical. The settings on record: 10 μM compound, 2 μM Aβ (1-42), 20 μM ThT, pH 8.0, 37° C.; FIG. 6A. Here is the method: The degree of inhibition of Aβ (1-42) aggregation was measured using an in vitro ThT fluorescence assay. An Aβ (1-42) stock (0.2 mM) was prepared in 50% DMSO, and NDGA and CU stocks were prepared in 100% DMSO. Reactions for Aβ (1-42) aggregation (2 μM) and its inhibition by NDGA or CU (10 μM) were performed in a 20 mM sodium phosphate buffer (pH 8.0) supplemented with 0.2 mM EDTA and 0.02% sodium azide in the presence of 20 μM ThT in microplate wells (Corning® 96-well Black Flat Bottom Polystyrene Not Treated Microplate, Corning). ThT fluorescence intensity was measured every 30 minutes under 0.5 min shaking under 335 rpm/29.5 min incubation conditions at 37° C. using an Infinite […] (TECAN Mannedorf, Switzerland) microplate reader with 450-nm excitation and 480-nm emission filters.

Data set [1] has as its system Alzheimer's disease-derived spheroids (PS1-mutated AD-iPSC-NPCs). Kind of data set: Aβ (1-42) ELISA in Alzheimer's disease-derived spheroids cultured with drug. It counts as cell-based, human. The settings on record: 10 μM, 3 days; FIG. 6B. Here is the method: (§1) For drug efficacy testing of 3D cultured cells, PS1-mutated AD-iPSC-NPCs were differentiated into spheroids in a U-bottom plate (Thermo Fisher Scientific). Spheroids were cultured with nordihydroguaiaretic acid (NDGA)(10 μM, Tokyo Chemical Industry, Tokyo, Japan) or curcumin (CU)(10 μM, Tokyo Chemical Industry) in a humidified incubator under 37° C. and 5% CO^2 conditions for 3 days and then fixed for immunocytochemistry and western blotting.
On the technique in general: ELISA stands for enzyme-linked immunosorbent assay.

The test system is the same in data set [2]. Kind of data set: ThT staining of Aβ aggregates in Alzheimer's disease-derived spheroids. It counts as cell-based, human. To be noted: 10 μM, 3 days; confocal microscopy; FIG. 6C. How it is done:
as §1
(§2) After washing with a probe-free medium, samples were captured and analyzed using a fluorescence microscope (FV3000, Olympus).

Data set [3] shares this test system. The data set can be described thus: CellEvent Caspase-3/7 Green activated caspase staining in Alzheimer's disease-derived spheroids. It counts as cell-based, human. The settings on record: for CellEvent fluorescence signal (activated caspase cell death staining): 10 μM, 3 days, confocal microscopy, FIG. 6D; for green fluorescence of activated caspase, confocal z-stack from surface to inside of spheroids (cell penetration/uptake): confocal z-stack images, FIG. 7. How it is done:
as §1
(§3) After being washed with a probe-free medium, samples were captured and analyzed using a fluorescence microscope (FV3000, Olympus). Cell penetration/uptake by CellEvent staining was analyzed with confocal z-stack data for the green fluorescence of activated caspase released from the inside of spheroids. The confocal z-stack data was obtained from 100 slides of each 1 μm of one spheroid.

For data set [4], the system named is 3D spheroids manufactured from iPSC-NPCs derived from healthy individuals. The data set can be described thus: ThT staining of control 3D spheroids treated with oligomerized Aβ. The settings on record: Aβ aggregates 10 μM, 24 hours, compared to spheroids not treated with Aβ; FIG. 4A. It counts as cell-based, human.
Description: (§4) J Neurosci Methods. 2010; 190(2): 171-179. […] When used, Aβ was suspended in PBS and used.
as §2

Data set [5] shares this test system. The data set can be described thus: CellEvent activated caspase staining of control 3D spheroids treated with oligomerized Aβ. It counts as cell-based, human. The settings on record: Aβ aggregates 10 μM, 24 hours, compared to untreated; FIG. 4C. Here is the method:
as §4, §3

T1 sequence (P05067 672-713 limits assumed): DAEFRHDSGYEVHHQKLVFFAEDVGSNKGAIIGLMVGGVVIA

On to `COc1cc(/C=C/C(=O)CC(=O)/C=C/c2ccc(O)c(OC)c2)ccc1O` [CU, curcumin], for which, at Aβ (1-42), the “Aβ (1-42) aggregation (ThT fluorescence)” value is “suppressed”. Also, the “Aβ (1-42) levels by ELISA” value in data set [1] is recorded as “decreased; also recorded: reduced”. In addition, the “ThT fluorescence signal / staining intensity (Aβ aggregates)” value in data set [2] was “reduced”. Moreover, in data set [3], the “CellEvent fluorescence signal (activated caspase cell death staining)” value is “reduced” and the “green fluorescence of activated caspase, confocal z-stack from surface to inside of spheroids (cell penetration/uptake)” value was “reduction in fluorescence from the surface to the inside of spheroids”.

`CC(Cc1ccc(O)c(O)c1)C(C)Cc1ccc(O)c(O)c1` (stereo not drawn) [NDGA, nordihydroguaiaretic acid]: on Aβ (1-42), the “Aβ (1-42) aggregation (ThT fluorescence)” value is listed as “suppressed”. Moreover, in data set [1], the “Aβ (1-42) levels by ELISA” value was “decreased; also recorded: reduced”. Further, the “ThT fluorescence signal / staining intensity (Aβ aggregates)” value in data set [2] is recorded as “reduced”. In addition, in data set [3], the “CellEvent fluorescence signal (activated caspase cell death staining)” value was “reduced” and the “green fluorescence of activated caspase, confocal z-stack from surface to inside of spheroids (cell penetration/uptake)” value was “reduction in fluorescence from the surface to the inside of spheroids”.

“oligomerized Aβ: Aβ (1-42) peptide aggregated/oligomerized in DMSO, used to treat control spheroids”: in data set [4], the ThT fluorescence emission result was “noticeably increased”. Also, in data set [5], the “green fluorescence emission according to CellEvent staining (cell death)” value is “substantially increased”.
